Assay [1] relates to Human umbilical vein endothelial cells (HUVEC). Kind of assay: TNF-α induced apoptosis in HUVEC (Annexin V immunostaining, morphology). Format: cell-based. As to the method: Human umbilical vein endothelial cells (HUVEC) were plated in DMEM containing 0.5% fetal bovine serum that was supplemented with 1 ng/ml of vascular endothelial growth factor. After overnight culture, the cells were washed with PBS and incubated for an additional 24 hours in DMEM containing 0.5% fetal bovine serum and either vehicle control (DMSO) or 25 μM of compound G. The cell cultures were subsequently washed and re-cultured with DMEM containing 0.5% fetal bovine serum containing 20 ng/ml TNF-α for an additional 4 or 8 hours. The cells were then harvested and immunostained with either FITC-conjugated isotype control or FITC-conjugated Annexin V for identification and determination of cells undergoing apoptosis. (Koopman et al. (1994) Blood 84:1415-1420.) Annexin V preferentially binds negatively charged phospholipids, like phosphatidylserine, which are associated with plasma membrane changes in apoptotic cells. Annexin V binding allows for the identification and quantitation of cells at early stages of apoptosis, when apoptosis occurs in the absence of DNA fragmentation, and the discrimination between cell death associated with apoptosis or with necrosis.
In replicate HUVEC cultures treated as described above, light micrographs were taken of cells treated with vehicle control (DMSO) and compound G following stimulation with 20 ng/ml TNF-α for 4 and 8 hours (FIG. 6). […]

Assay [2] has as its system gene encoding adrenomedullin. Kind of assay: Adrenomedullin gene expression in peripheral blood mononuclear cells. In kind it is cell-based. Particulars: human PBMCs, 5 μM, 20 hours. The method, then: Adrenomedullin gene expression following compound treatment was also examined in peripheral blood mononuclear cells (PBMCs). Whole human blood was collected and processed immediately. The blood was diluted with an equal volume of phosphate buffered saline. FICOLL-PAQUE PLUS (Amersham Biosciences) was layered under the blood and the tubes were centrifuged at 350×g for 12 minutes at room temperature. PBMCs formed a visible layer in the middle layer of the tube. PBMCs were carefully removed from the tube, diluted with 3 volumes of phosphate buffered saline, and pelleted by centrifugation for 5 minutes at 300×g at room temperature. PBMCs were cultured in DMEM containing 2.5% fetal bovine serum and treated with either 0.25% DMSO or compound G (5 μM) in 0.25% DMSO for 20 hours. The cells were then pelleted and stored at −20° C. in RLT lysis buffer (Qiagen Inc., Valencia, Calif.) containing 1% beta-mercaptoethanol. Total RNA was isolated using the RNeasy kit (Valencia, Calif.).

A further assay relates to H9c2 rat cardiomyocytes. Kind of assay: Intracellular ATP levels in H9c2 cardiomyocytes after oxygen and glucose deprivation (glucose-free DMEM, 2 mM KCN). Format: cell-based. Particulars: H9c2, 20 μM pretreatment 24 hours, glucose-free DMEM and 2 mM KCN for 30 minutes; vehicle control 415. The method, then: In similar experiments, H9c2 rat cardiomyocytes were pretreated with either vehicle control (0.5% DMSO) or 20 μM of Compound A, Compound B, Compound C, Compound D, Compound E, Compound F, Compound G, or compound H. After 24 hours, cells were washed with serum-free DMEM and subjected to oxygen and glucose deprivation by incubating the cells in glucose-free DMEM and 2 mM KCN for 30 minutes. Intracellular ATP levels were then determined.

The next assay deals with caspase-3 and caspase-7. Nature of the assay: Caspase-3 and caspase-7 fluorometric assay in SH-SY5Y cells challenged with staurosporin. Format: cell-based, human. As to the method: SH-SY5Y cells (human neuroblastoma cells) were plated in 96-well culture plates at 60,000 cells per well. Following overnight incubation, cells were washed one time with DMEM containing 1% fetal bovine serum and cultured in identical media with either vehicle control (DMSO) or 20 μM compound G in a total volume of 200 μl per well. After 24 hours, cells were washed with serum-free media and then incubated with DMEM containing 10% fetal bovine serum with either vehicle control (DMSO) or 20 μM compound G in a total volume of 200 μl per well. Replicate cultures received DMEM with 1% fetal bovine serum and were cultured with either vehicle control (DMSO) or 20 μM compound G, in the absence or presence of 500 nM staurosporin, a kinase inhibitor that induces cellular apoptosis by a caspase-dependent mechanism. (Jacobsen et al. (1996) J Cell Biol. 133:1041-51.). After an additional 24 hour incubation, caspase activity was assayed using a caspase-3 and caspase-7 fluorometric assay according to the manufacturer's instructions (Apo-ONE Homogenous Caspase 3/7 Assay, Promega, Wis.).

In the case of `O=C(O)CNC(=O)c1ncc2cc(Oc3ccccc3)ccc2c1O` [Compound G, [(4-Hydroxy-7-phenoxy-isoquinoline-3-carbonyl)-amino]-acetic acid], the “annexin V immunostaining (mean fluorescence intensity) versus TNF-α alone” value in assay [1] (25 μM for 24 hours prior to 20 ng/ml TNF-α for 4 or 8 hours) is on record as “reduced annexin V immunostaining”. In addition, the “HUVEC morphology after TNF-α (light micrographs)” value in assay [1] (25 μM prior to 20 ng/ml TNF-α for 4 and 8 hours) is “viable and normal morphology”. In addition, the “increase in expression of the gene encoding adrenomedullin compared to non-treated control cells” value in assay [2] is given as “greater than 3.518 fold”. Besides, in the assay on H9c2 rat cardiomyocytes, the “ATP (relative light units)” value came out at 2128.3 relative light units. Moreover, the “caspase activity after staurosporine challenge” value in the assay on caspase-3 and caspase-7 (20 μM pretreatment, 500 nM staurosporin, 1% fetal bovine serum, FIG. 1) is given as “significantly inhibited”. Moreover, the “caspase activity in cells not undergoing apoptosis, versus DMSO” value with caspase-3 and caspase-7 (20 μM, 10% fetal bovine serum, no staurosporin) is recorded as “no differences in caspase activity”.
